Results as given in ChEMBL document CHEMBL2434853, “3-(3-Butylamino-2-hydroxy-propoxy)-1-hydroxy-xanthen-9-one acts as a topoisomerase IIα catalytic inhibitor with low DNA damage” (Eur J Med Chem, 2013).
Calls of active or inactive are those of the source. The calls are words filed in the database; no cut-off is given here.

Experiments:
HCT-15 [1] = assay: Cytotoxicity against human HCT15 cells after 2 days by CCK-8 assay; format: functional, cell-based; conditions: HCT-15, 48 h
[2] = target: T1, DNA topoisomerase 2-alpha (Homo sapiens, UniProt P11388); assay: Inhibition of human DNA topoisomerase-2alpha assessed as relaxation of supercoiled pBR322 DNA at 20 uM after 30 mins by agarose gel electrophoresis relative to control
HEK293 = assay: Cytotoxicity against HEK293 cells after 2 days by CCK-8 assay; format: functional, cell-based; conditions: Homo sapiens, HEK293, 48 h
T47D = assay: Cytotoxicity against human T47D cells after 2 days by CCK-8 assay; format: functional, cell-based; conditions: 48 h
DU-145 = assay: Cytotoxicity against human DU145 cells after 2 days by CCK-8 assay; format: functional, cell-based; conditions: DU-145, 48 h
[3] = target: T2, DNA topoisomerase 1 (Homo sapiens) (UniProt P11387); assay: Inhibition of recombinant human DNA topoisomerase-1 assessed as relaxation of supercoiled pBR322 DNA at 20 uM after 30 mins by agarose gel electrophoresis relative to control
T2 sequence (whole entry): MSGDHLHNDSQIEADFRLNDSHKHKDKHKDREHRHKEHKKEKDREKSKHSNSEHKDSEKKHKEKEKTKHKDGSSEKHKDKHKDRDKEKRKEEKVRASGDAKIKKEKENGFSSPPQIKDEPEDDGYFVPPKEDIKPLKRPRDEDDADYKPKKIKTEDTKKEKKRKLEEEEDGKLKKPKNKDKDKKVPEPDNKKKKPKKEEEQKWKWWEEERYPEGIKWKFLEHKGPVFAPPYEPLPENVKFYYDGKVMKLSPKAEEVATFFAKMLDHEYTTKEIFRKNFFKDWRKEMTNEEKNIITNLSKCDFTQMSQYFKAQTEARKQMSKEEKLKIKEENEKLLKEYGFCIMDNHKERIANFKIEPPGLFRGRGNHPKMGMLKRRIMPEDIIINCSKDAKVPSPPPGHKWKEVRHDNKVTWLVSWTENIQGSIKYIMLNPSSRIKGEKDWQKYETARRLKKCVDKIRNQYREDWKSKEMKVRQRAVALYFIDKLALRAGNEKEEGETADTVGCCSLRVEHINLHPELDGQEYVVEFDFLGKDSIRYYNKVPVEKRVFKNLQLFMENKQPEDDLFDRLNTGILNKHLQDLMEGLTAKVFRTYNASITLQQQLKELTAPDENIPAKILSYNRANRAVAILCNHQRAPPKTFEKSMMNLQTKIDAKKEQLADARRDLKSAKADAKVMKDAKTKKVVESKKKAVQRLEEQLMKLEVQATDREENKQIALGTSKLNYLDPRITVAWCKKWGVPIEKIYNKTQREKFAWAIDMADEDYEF

[4] = target: T1, DNA topoisomerase 2-alpha; assay: Inhibition of human DNA topoisomerase-2alpha assessed as relaxation of supercoiled pBR322 DNA after 30 mins by agarose gel electrophoresis
[5] = target: T1, DNA topoisomerase 2-alpha; assay: Inhibition of human DNA topoisomerase-2alpha assessed as relaxation of supercoiled pBR322 DNA at 10 uM after 30 mins by agarose gel electrophoresis relative to control
[6] = target: T1, DNA topoisomerase 2-alpha; assay: Inhibition of human DNA topoisomerase-2alpha assessed as relaxation of supercoiled pBR322 DNA at 100 uM after 30 mins by agarose gel electrophoresis relative to control
[7] = target: T1, DNA topoisomerase 2-alpha; conditions: 20 uM
Description: Competitive inhibition of recombinant human DNA topoisomerase-2alpha assessed as relaxation of supercoiled pBR322 DNA at 20 uM after 30 mins by agarose gel electrophoresis in presence of 1 mM ATP relative to control

[8] = target: T1, DNA topoisomerase 2-alpha; conditions: 100 uM
Description: Competitive inhibition of recombinant human DNA topoisomerase-2alpha assessed as relaxation of supercoiled pBR322 DNA at 100 uM after 30 mins by agarose gel electrophoresis in presence of 1.5 mM ATP relative to control

[9] = target: T1, DNA topoisomerase 2-alpha; conditions: 100 uM; remark: listed apart in the source
Description: Competitive inhibition of recombinant human DNA topoisomerase-2alpha assessed as relaxation of supercoiled pBR322 DNA at 100 uM after 30 mins by agarose gel electrophoresis in presence of 1 mM ATP relative to control

HCT-15 [10] = assay: Potency index, ratio of etoposide IC50 to compound IC50 for human HCT15 cells; format: functional
[11] = target: T1, DNA topoisomerase 2-alpha; assay: Inhibition of human DNA topoisomerase-2alpha ATPase activity using supercoiled pUC18 DNA as substrate assessed as inorganic phosphate release at 200 uM incubated for 30 mins prior to ATP addition measured after 30 mins by malachite green phosphate assay relative to control
[12] = target: T1, DNA topoisomerase 2-alpha; conditions: 50 uM
Description: Competitive inhibition of recombinant human DNA topoisomerase-2alpha assessed as relaxation of supercoiled pBR322 DNA at 50 uM after 30 mins by agarose gel electrophoresis in presence of 1 mM ATP relative to control

[13] = target: T1, DNA topoisomerase 2-alpha; conditions: 10 uM
Description: Competitive inhibition of recombinant human DNA topoisomerase-2alpha assessed as relaxation of supercoiled pBR322 DNA at 10 uM after 30 mins by agarose gel electrophoresis in presence of 1.5 mM ATP relative to control

[14] = target: T1, DNA topoisomerase 2-alpha; assay: Inhibition of human DNA topoisomerase-2alpha ATPase activity using supercoiled pUC18 DNA as substrate assessed as inorganic phosphate release at 400 uM incubated for 30 mins prior to ATP addition measured after 30 mins by malachite green phosphate assay relative to control
[15] = target: T1, DNA topoisomerase 2-alpha; assay: Inhibition of human DNA topoisomerase-2alpha ATPase activity using supercoiled pUC18 DNA as substrate assessed as inorganic phosphate release at 300 uM incubated for 30 mins prior to ATP addition measured after 30 mins by malachite green phosphate assay relative to control
[16] = target: T1, DNA topoisomerase 2-alpha; conditions: 50 uM; remark: listed apart in the source
Description: Competitive inhibition of recombinant human DNA topoisomerase-2alpha assessed as relaxation of supercoiled pBR322 DNA at 50 uM after 30 mins by agarose gel electrophoresis in presence of 1.5 mM ATP relative to control

[17] = target: T1, DNA topoisomerase 2-alpha; conditions: 20 uM; remark: listed apart in the source
Description: Competitive inhibition of recombinant human DNA topoisomerase-2alpha assessed as relaxation of supercoiled pBR322 DNA at 20 uM after 30 mins by agarose gel electrophoresis in presence of 1.5 mM ATP relative to control

[18] = Induction of pHOT1 DNA (unknown origin) intercalating activity assessed as blockade of DNA unwinding after 30 mins by agarose gel electrophoresis in presence of DNA topoisomerase-1
[19] = target: T1, DNA topoisomerase 2-alpha; conditions: 10 uM; remark: listed apart in the source
Description: Competitive inhibition of recombinant human DNA topoisomerase-2alpha assessed as relaxation of supercoiled pBR322 DNA at 10 uM after 30 mins by agarose gel electrophoresis in presence of 1 mM ATP relative to control

[20] = target: T1, DNA topoisomerase 2-alpha; conditions: 5 uM
Description: Competitive inhibition of recombinant human DNA topoisomerase-2alpha assessed as relaxation of supercoiled pBR322 DNA at 5 uM after 30 mins by agarose gel electrophoresis in presence of 1 mM ATP relative to control

[21] = target: T1, DNA topoisomerase 2-alpha; conditions: 2 uM
Description: Competitive inhibition of recombinant human DNA topoisomerase-2alpha assessed as relaxation of supercoiled pBR322 DNA at 2 uM after 30 mins by agarose gel electrophoresis in presence of 1.5 mM ATP relative to control

[22] = target: T1, DNA topoisomerase 2-alpha; conditions: 2 uM; remark: listed apart in the source
Description: Competitive inhibition of recombinant human DNA topoisomerase-2alpha assessed as relaxation of supercoiled pBR322 DNA at 2 uM after 30 mins by agarose gel electrophoresis in presence of 1 mM ATP relative to control

Escherichia coli [23] = assay: Induction of Escherichia coli pBR322 DNA intercalating activity assessed as retardation of DNA at 300 uM after 20 mins by agarose gel electrophoresis
[24] = target: T1, DNA topoisomerase 2-alpha; conditions: 5 uM; remark: listed apart in the source
Description: Competitive inhibition of recombinant human DNA topoisomerase-2alpha assessed as relaxation of supercoiled pBR322 DNA at 5 uM after 30 mins by agarose gel electrophoresis in presence of 1.5 mM ATP relative to control

HCT-15 [25] = assay: Induction of DNA damage in human HCT15 cells at 10 uM after 24 hrs by comet assay; format: functional, cell-based
Escherichia coli [26] = assay: Induction of Escherichia coli pBR322 DNA intercalating activity assessed as retardation of DNA at 1 to 2.5 uM after 20 mins by agarose gel electrophoresis
[27] = Induction of pHOT1 DNA (unknown origin) intercalating activity assessed as blockade of DNA unwinding at 50 to 500 uM after 30 mins by agarose gel electrophoresis in presence of DNA topoisomerase-1

T1 sequence (P11388 whole entry): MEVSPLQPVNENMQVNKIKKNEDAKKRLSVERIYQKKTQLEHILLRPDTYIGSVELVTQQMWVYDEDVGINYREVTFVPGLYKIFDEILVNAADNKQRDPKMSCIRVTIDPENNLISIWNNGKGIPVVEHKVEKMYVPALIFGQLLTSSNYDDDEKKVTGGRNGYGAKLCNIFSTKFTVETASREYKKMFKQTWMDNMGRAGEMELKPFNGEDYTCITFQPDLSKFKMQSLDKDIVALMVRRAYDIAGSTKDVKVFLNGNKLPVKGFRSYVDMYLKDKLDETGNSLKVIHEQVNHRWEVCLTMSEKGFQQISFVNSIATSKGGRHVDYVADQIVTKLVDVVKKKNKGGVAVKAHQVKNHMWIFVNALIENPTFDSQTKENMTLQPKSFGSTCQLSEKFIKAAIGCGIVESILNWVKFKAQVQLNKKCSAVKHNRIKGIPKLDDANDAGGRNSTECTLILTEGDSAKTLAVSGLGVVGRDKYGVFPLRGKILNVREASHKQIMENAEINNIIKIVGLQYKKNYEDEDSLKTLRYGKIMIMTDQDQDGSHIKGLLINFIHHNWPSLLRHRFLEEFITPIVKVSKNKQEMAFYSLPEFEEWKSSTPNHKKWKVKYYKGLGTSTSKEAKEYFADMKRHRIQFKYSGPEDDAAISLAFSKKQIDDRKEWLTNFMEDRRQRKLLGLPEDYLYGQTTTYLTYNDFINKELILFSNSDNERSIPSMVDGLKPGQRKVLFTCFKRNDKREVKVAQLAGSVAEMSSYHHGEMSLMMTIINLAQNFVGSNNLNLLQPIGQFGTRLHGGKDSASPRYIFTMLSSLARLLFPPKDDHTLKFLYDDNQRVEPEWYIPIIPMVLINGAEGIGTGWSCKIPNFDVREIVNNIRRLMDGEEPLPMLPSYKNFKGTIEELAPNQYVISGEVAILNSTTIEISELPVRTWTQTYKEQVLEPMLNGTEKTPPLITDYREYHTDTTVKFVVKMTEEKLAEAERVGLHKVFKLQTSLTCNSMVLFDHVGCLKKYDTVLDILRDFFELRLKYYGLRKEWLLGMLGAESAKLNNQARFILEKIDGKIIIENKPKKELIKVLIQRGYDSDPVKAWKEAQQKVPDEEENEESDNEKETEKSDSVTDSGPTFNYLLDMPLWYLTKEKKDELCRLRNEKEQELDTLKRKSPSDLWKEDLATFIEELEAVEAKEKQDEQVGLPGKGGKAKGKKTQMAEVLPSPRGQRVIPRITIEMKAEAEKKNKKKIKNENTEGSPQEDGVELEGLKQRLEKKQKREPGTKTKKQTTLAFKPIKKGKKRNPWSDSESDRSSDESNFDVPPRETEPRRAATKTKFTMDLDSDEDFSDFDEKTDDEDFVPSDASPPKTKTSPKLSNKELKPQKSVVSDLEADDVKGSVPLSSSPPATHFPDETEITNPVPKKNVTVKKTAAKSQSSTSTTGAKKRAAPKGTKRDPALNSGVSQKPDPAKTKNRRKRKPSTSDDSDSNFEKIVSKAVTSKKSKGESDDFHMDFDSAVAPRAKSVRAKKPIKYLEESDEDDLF

Compound | IC50 (HCT-15 [1]) | inhibition [2] | IC50 (HEK293) | IC50 (T47D) | IC50 (DU-145) | inhibition [3] | IC50 [4] | inhibition [5] | inhibition [6] | further results
CCCCCCNCC(O)COc1cc(O)c2c(=O)c3ccccc3oc2c1 (configuration not stated) | 1.53 µM | 43.6% | 1.45 µM | 1.28 µM | 1.15 µM | 0% | 19.7 µM | 0% | 80.7% | 
CCCCCNCC(O)COc1cc(O)c2c(=O)c3cccc(OC)c3oc2c1 (configuration not stated) | 1 µM | 62.6% | 7.22 µM | 9.8 µM | 0.91 µM | 0% | 13.8 µM | 2% | 100% | 
CCCCNCC(O)COc1cc(O)c2c(=O)c3ccccc3oc2c1 (configuration not stated) | 0.78 µM | 67.7% | 3.44 µM | 0.93 µM | 1.98 µM | 0% | 9 µM | 64% | 95.1% | inhibition [7]: 87.9%; inhibition [8]: 88.7%; inhibition [9]: 88.7%; Ratio IC50 (HCT-15 [10]): 6.6; inhibition [11]: 15.1%; inhibition [12]: 87.7%; inhibition [13]: 21%; inhibition [14]: 33.7%; inhibition [15]: 23.9%; inhibition [16]: 64.9%; inhibition [17]: 37.7%; Activity [18]: Dose-dependent effect; inhibition [19]: 60.4%; inhibition [20]: 48.5%; inhibition [21]: 7.1%; inhibition [22]: 4%; Activity (Escherichia coli [23]): Active; inhibition [24]: 17.5%; Activity (HCT-15 [25]): inactive
CC[n+]1c(-c2ccccc2)c2cc(N)ccc2c2ccc(N)cc21 |  |  |  |  |  |  |  |  |  | Activity (Escherichia coli [26]): Active
CC[C@@]1(O)C(=O)OCc2c1cc1n(c2=O)Cc2cc3ccccc3nc2-1 [CAMPTOTHECIN] | 0.42 µM |  | 0.78 µM | 0.3 µM | 0.39 µM |  |  |  |  | 
COc1cccc2c1C(=O)c1c(O)c3c(c(O)c1C2=O)C[C@@](O)(C(=O)CO)C[C@@H]3O[C@H]1C[C@H](N)[C@H](O)[C@H](C)O1 [DOXORUBICIN] | 1.38 µM |  | 3.07 µM | 0.41 µM | 2.68 µM |  |  |  |  | 
CCCCNCC(O)COc1cc(O)c2c(=O)c3cccc(OC)c3oc2c1 (configuration not stated) | 9.11 µM | 68.1% | 1.74 µM | 2.97 µM | 3.31 µM | 0% | 11.2 µM | 24.2% | 100% | 
CO[C@@H]1[C@@H](OC(N)=O)[C@@H](O)[C@H](Oc2ccc3c(O)c(NC(=O)c4ccc(O)c(CC=C(C)C)c4)c(=O)oc3c2C)OC1(C)C |  |  |  |  |  |  |  |  |  | inhibition [11]: 14.4%; inhibition [14]: 76.8%; inhibition [15]: 63.6%
CCCNCC(O)COc1cc(O)c2c(=O)c3ccccc3oc2c1 (configuration not stated) | 5.49 µM | 60.2% | 4.28 µM | 6.49 µM | 1.98 µM | 0% | 10.4 µM | 50.2% | 93.8% | 
CCCCCNCC(O)COc1cc(O)c2c(=O)c3ccccc3oc2c1 (configuration not stated) | 0.71 µM | 52.1% | 2.65 µM | 1.62 µM | 1.13 µM | 3% | 16.4 µM | 0.7% | 92.9% | 
COc1cc(NS(C)(=O)=O)ccc1Nc1c2ccccc2nc2ccccc12 |  |  |  |  |  |  |  |  |  | Activity [27]: Active
CCCNCC(O)COc1cc(O)c2c(=O)c3cccc(OC)c3oc2c1 (configuration not stated) | 5.39 µM | 64.4% | 3.62 µM | 3.33 µM | 1.48 µM | 0% | 12 µM | 6% | 100% | 
COc1cc([C@@H]2c3cc4c(cc3[C@@H](O[C@@H]3O[C@@H]5CO[C@@H](C)O[C@H]5[C@H](O)[C@H]3O)[C@H]3COC(=O)[C@H]23)OCO4)cc(OC)c1O [ETOPOSIDE] | 5.12 µM |  | 0.72 µM | 3.42 µM | 9.29 µM |  |  | 18% |  | inhibition [8]: 82.6%; inhibition [9]: 87.6%; Activity (HCT-15 [25]): Active
CCCCCCNCC(O)COc1cc(O)c2c(=O)c3cccc(OC)c3oc2c1 (configuration not stated) | 6.32 µM | 61.2% | 4.53 µM | 6.17 µM | 1.79 µM | 0% | 13.8 µM | 0% | 100% | 
